Where only a bound is given, the exact number is not on record here.

The test system of test [1] is Wnt/β-catenin signaling (β-catenin activity) in SW480 cell line. Description: Cell-based Wnt agonist screening, TCF luciferase reporter, SW480 (TCF-FL). On the set-up: species or system human. The following applies: Homo sapiens, % of LiCl (20 mM), 24 h, read-out: Max. Activity (%); for Emax at 120 µM: Con. 120 μM; for Emax at 10 µM: Con. 10 μM; for Emax at 30 µM: Con. 30 μM; for Emax at 1 µM: Con. 1 μM. From the text:
(§1) In order to measure the in vitro activity of compounds of the present invention, two human cancer cell lines, HEK293 and SW480, which have intact Wnt signaling and show APC gene mutation in the Wnt signaling pathway, respectively, were used.
(§2) For evaluating the activity of wnt/β-catenin signaling in the cancer cell lines, gene as illustrated in FIG. 1 having β-catenin-binding sites of the Tcf/Lef transcriptional control protein (5 sites of TCF, 5X TCF) and having a fire fly luficerase as a marker protein ascertainable the activity of 5X TCF was introduced into the cells. Treatment with G418 led monoclones of the cell lines, in which the genes were permanently expressed, so as to construct a cell-based Wnt agonist screening system. […] For comparison with the activity of the isoxazole derivatives as Wnt agonists, lithium chloride (LiCl), acting as a positive control for the cell-based Wnt agonist screening system, was used to determine the expression level of the luciferase, and the results are shown in FIG. 3.
(§3) The cell lines, in which a cell-based Wnt agonist screening system was constructed, were cultured in RPMI 1640 media supplemented with penicillin-streptomycin (100 Units/mL) and heat-inactivated 5% fetal bovine serum under standard culture conditions (5% CO2, 37° C., 100% relative humidity). […] The suspension was diluted with the same medium to adjust the cell count to 8,000˜15,000 cells per well and was moved then in a 96-well microtiter plate. After being incubated for 24 hrs, the cells were treated with various concentrations of the isoxazole derivatives synthesized in Preparation Examples. Incubation for an additional 24 hours was followed by the quantitative analysis of luciferase activity using a Luciferase Assay kit (Promega, U.S.A.) according to the protocol described in the manual provided by the manufacturer. Data on the activities of the isoxazole derivatives thus synthesized are given in Tables 34 to 43, and are expressed as percentages relative to the activity of the positive control LiCl (20 mM), a well-known agonist of Wnt signaling.
(Reporter assays use an easily measured gene product as a stand-in for the process of interest.)

Test [2] relates to Wnt/β-catenin signaling (β-catenin activity) in HEK293 cell line. Briefly: Cell-based Wnt agonist screening, TCF luciferase reporter, HEK293 (TCF-FL). On the set-up: species or system human. The following applies: Homo sapiens, HEK293, 24 h, % of LiCl (20 mM), 24 h, read-out: Max. Activity (%); for Emax at 30 µM: Conc. 30 μM; for Emax at 120 µM: Conc. 120 μM.
Source text: as §1, §2, §3

For `O=C(NCc1ccncc1)OCc1cc(-c2ccco2)on1` [Derivative (254), pyridin-4-ylmethyl-carbamic acid 5-furan-2-yl-isoxazol-3-ylmethyl ester], the Emax at 120 µM in test [1] came to 37%.

`O=C(NCCn1cncn1)c1cc(-c2ccco2)on1` [Derivative (38), 5-furan-2-yl-isoxazole-3-carboxylic acid (2-[1,2,4]triazol-1-yl-ethyl)-amide]: in test [1], the Emax at 10 µM came out at 551%.

Take `O=C(NCCCn1ccnc1)c1cc(-c2ccccn2)on1` [Derivative (75), 5-pyridin-2-yl-isoxazole-3-carboxylic acid (3-imidazol-1-yl-propyl)-amide]: the Emax at 30 µM in test [1] and in test [2] was under 20% each time.

Consider `Cc1ccccc1-c1cc(C(=O)NCCCn2ccnc2)no1` [Derivative (78), 5-o-tolyl-isoxazole-3-carboxylic acid (3-imidazol-1-yl-propyl)-amide], for which the Emax at 120 µM in test [1] and in test [2] was 42% in each case.

Consider `O=C(NCCc1cccc(F)c1)c1cc(-c2ccco2)on1` [Derivative (17), 5-furan-2-yl-isoxazole-3-carboxylic acid [2-(3-fluoro-phenyl)-ethyl]-amide], for which the Emax at 60 µM in test [1] (Con. 60 μM) worked out at 200%. The Emax at 30 µM in test [2] is under 20%.

Turning to `O=C(NCCOc1ccccc1)c1cc(-c2ccco2)on1` [Derivative (214), 5-furan-2-yl-isoxazole-3-carboxylic acid (2-phenoxy-ethyl)-amide], the Emax at 1 µM in test [1] came out at 161%.

Turning to `O=C(CCNC(=O)c1cc(-c2cccs2)on1)Nc1ccccc1` [Derivative (209), 5-thiophen-2-yl-isoxazole-3-carboxylic acid (2-phenylcarbamoyl-ethyl)-amide], the Emax at 30 µM in test [1] came out at 246%.

For the compound `CC(=O)N1CCN(C(=O)OCc2cc(-c3ccco3)on2)CC1` [Derivative (252), 4-acetyl-piperazine-1-carboxylic acid 5-furan-2-yl-isoxazol-3-ylmethyl ester], the Emax at 120 µM in test [1] was found to be 49%.

`O=C(NCCc1ccc(O)cc1)c1cc(-c2ccco2)on1` [Derivative (22), 5-furan-2-yl-isoxazole-3-carboxylic acid [2-(4-hydroxy-phenyl)-ethyl]-amide]: in test [2], the Emax at 30 µM is under 20%.

As for `O=C(NCCn1ccnn1)c1cc(-c2ccco2)on1` [Derivative (41), 5-furan-2-yl-isoxazole-3-carboxylic acid (2-[1,2,3]triazol-1-yl-ethyl)-amide], the Emax at 30 µM in test [1] amounted to 676%.

For the compound `O=C(NCCc1ccc(O)cc1)c1cc(-c2ccccc2)on1` [Derivative (73), 5-phenyl-isoxazole-3-carboxylic acid [2-(4-hydroxy-phenyl)-ethyl]-amide], the Emax at 30 µM in test [1] was found to be 853%.

For the compound `CN1CCN(C(=O)OCc2cc(-c3ccco3)on2)CC1` [Derivative (253), 4-methyl-piperazine-1-carboxylic acid 5-furan-2-yl-isoxazol-3-ylmethyl ester], the Emax at 10 µM in test [1] was determined as 66%.

With `O=C(NCCCn1ccnc1)c1cc(-c2ccc(Br)s2)on1` [Derivative (143), 5-(5-bromo-thiophen-2-yl)-isoxazole-3-carboxylic acid (3-imidazol-1-yl-propyl)-amide], the Emax at 120 µM in test [1] came to 93%.

`O=C(OCc1cc(-c2ccco2)on1)n1ccnc1` [Derivative (251), imidazole-1-carboxylic acid 5-furan-2-yl-isoxazol-3-ylmethyl ester]: the Emax at 120 µM in test [1] was found to be 35%.

Consider `O=C(NCCn1nccn1)c1cc(-c2cccs2)on1` [Derivative (136), 5-thiophen-2-yl-isoxazole-3-carboxylic acid (2-[1,2,3]triazol-2-yl-ethyl)-amide], for which the Emax at 1 µM in test [1] worked out at 837%.

Regarding `CN1CCN(CCNC(=O)c2cc(-c3ccco3)on2)CC1` [Derivative (177), 5-furan-2-yl-isoxazole-3-carboxylic acid [2-(4-methyl-piperazin-1-yl)-ethyl]-amide], the Emax at 30 µM in test [1] stood at 582%.

As for `O=C(NCCn1nccn1)c1cc(-c2ccco2)on1` [Derivative (40), 5-furan-2-yl-isoxazole-3-carboxylic acid (2-[1,2,3]triazol-2-yl-ethyl)-amide], the Emax at 30 µM in test [1] is 896%.

Regarding `O=C(c1cc(-c2cccs2)on1)N1CCC(N2CCCC2)CC1` [Derivative (223), (4-pyrrolidin-1-yl-piperidin-1-yl)-(5-thiophen-2-yl-isoxazol-3-yl)-methanone], in test [1], the Emax at 30 µM stood at 50%.

Consider `O=C(NCCc1cccnc1)c1cc(-c2ccccc2)on1` [Derivative (71), 5-phenyl-isoxazole-3-carboxylic acid (2-pyridin-3-yl-ethyl)-amide], for which, in test [1], the Emax at 30 µM came to 919%.

For the compound `O=C(c1cc(-c2cccs2)on1)N1CCN(c2ccccn2)CC1` [Derivative (221), (4-pyridin-2-yl-piperazin-1-yl)-(5-thiophen-2-yl-isoxazol-3-yl)-methanone], in test [1], the Emax at 30 µM turned out to be 51%.

`O=C(NCCS(=O)(=O)c1ccccc1)c1cc(-c2cccs2)on1` [Derivative (219), 5-thiophen-2-yl-isoxazole-3-carboxylic acid (2-benzenesulfonyl-ethyl)-amide]: the Emax at 30 µM in test [1] was found to be 113%.

As for `CN(CCc1ccccn1)C(=O)c1cc(-c2ccco2)on1` [Derivative (61), 5-furan-2-yl-isoxazole-3-carboxylic acid methyl-(2-pyridin-2-yl-ethyl)-amide], the Emax at 120 µM in test [1] stood at 56%.

Take `O=C(NCCCn1ccnc1)c1cc(-c2ccoc2)on1` [Derivative (152), 5-furan-3-yl-isoxazole-3-carboxylic acid (3-imidazol-1-yl-propyl)-amide]: the Emax at 120 µM in test [1] turned out to be 374%.

In the case of `O=C(NCCc1ccccn1)c1cc(-c2ccco2)on1` [Derivative (10), 5-furan-2-yl-isoxazole-3-carboxylic acid (2-pyridin-2-yl-ethyl)-amide], the Emax at 120 µM in test [2] came out at 32%.

In the case of `O=C(NCCn1cncn1)c1cc(-c2cccs2)on1` [Derivative (135), 5-thiophen-2-yl-isoxazole-3-carboxylic acid (2-[1,2,4]triazol-1-yl-ethyl)-amide], the Emax at 120 µM in test [1] worked out at 945%.

For the compound `O=C(NCCCn1cncn1)c1cc(-c2ccoc2)on1` [Derivative (153), 5-furan-3-yl-isoxazole-3-carboxylic acid (3-[1,2,4]-triazol-1-yl-propyl)-amide], the Emax at 10 µM in test [1] amounted to 304%.

On to `Nc1ccc(-c2cc(C(=O)NCCCn3ccnc3)no2)cc1` [Derivative (120), 5-(4-amino-phenyl)-isoxazole-3-carboxylic acid (3-imidazol-1-yl-propyl)-amide], for which, in test [1], the Emax at 120 µM was determined as 246%.

Turning to `O=C(NCCc1ccncc1)c1cc(-c2ccco2)on1` [Derivative (12), 5-furan-2-yl-isoxazole-3-carboxylic acid (2-pyridin-4-yl-ethyl)-amide], in test [2] (Conc. 60 μM), the Emax at 60 µM was 109%.

Regarding `O=C(NCCn1cncn1)c1cc(-c2ccsc2)on1` [Derivative (158), 5-thiophen-3-yl-isoxazole-3-carboxylic acid (2-[1,2,4]-triazol-1-yl-ethyl)-amide], in test [1], the Emax at 120 µM came out at 414%.

Turning to `O=C(NCCN1CCCCC1)c1cc(-c2ccco2)on1` [Derivative (174), 5-furan-2-yl-isoxazole-3-carboxylic acid (2-piperidin-1-yl-ethyl)-amide], in test [1], the Emax at 120 µM worked out at 79%.

Regarding `O=C(c1cc(-c2cccs2)on1)N1CCN(c2ncccn2)CC1` [Derivative (222), (4-pyrimidin-2-yl-piperazin-1-yl)-(5-thiophen-2-yl-isoxazol-3-yl)-methanone], the Emax at 30 µM in test [1] came to 57%.

For `O=C(NCCc1cccnc1)c1cc(-c2cccs2)on1` [Derivative (139), 5-thiophen-2-yl-isoxazole-3-carboxylic acid (2-pyridin-3-yl-ethyl)-amide], the Emax at 30 µM in test [1] stood at 922%.

Take `O=C(NCCNc1ccccc1)c1cc(-c2ccco2)on1` [Derivative (195), 5-furan-2-yl-isoxazole-3-carboxylic acid (2-phenylamino-ethyl)-amide]: the Emax at 1 µM in test [1] was found to be 84%.

(Values after patent US7915297B2, “Isoxazole derivatives and use thereof” (SK Holdings Co., Ltd., priority 2005, dated 2011).)
